Marks after values point to notes of the source that are not given here.
What was measured:
C. basilensis HMF14 [1] = test: Degradation of constituents of lignocellulosic hydrolysate, shake-flask cultures with each compound as single carbon source; type: cell-based, Cupriavidus basilensis
Source text: In addition to the furan derivatives, lignocellulosic hydrolysate also contains many other components that can inhibit fermentative production of biochemicals. While C. basilensis HMF14 is unable to degrade the sugars present in lignocellulosic hydrolysate, it preferably degrades many of the other toxic constituents, as illustrated in shake-flask cultures with each compound as a single carbon source (table 3).

Cupriavidus sp. HMF14 = test: Growth of Cupriavidus sp. HMF14 on carbon sources (strain characterization); type: cell-based, Cupriavidus basilensis
C. basilensis HMF14 [2] = test: Detoxification of wheat straw hydrolysate by C. basilensis HMF14; type: cell-based, Cupriavidus basilensis; conditions: for Removal from wheat straw hydrolysate: after ten hours of cultivation; for Concentration in hydrolysate during cultivation: during the first ten hours of cultivation
Procedure: Wheat straw hydrolysate was produced by dilute-acid hydrolysis (obtained from TNO Quality of Life, Zeist, The Netherlands). The hydrolysate was neutralized by adding 37 mM phosphate buffer (pH 7) and adjusting the pH to 7.0 with 10 M NaOH, resulting in a brown precipitate. After addition of minimal medium components, the solution was centrifuged at 10 000×g for 5 min. The supernatant was filter sterilized through a sterile PTFE filter with a pore size of 0.22 μm. The resulting medium (MMhyd) was inoculated with an overnight pre-culture of C. basilensis HMF14 in minimal medium with 3 mM HMF, 3 mM furfural and 12 mM sodium succinate.
(§1) Bacterial growth was determined by measuring optical density at 600 nm (OD600) using a Biowave Cell Density Meter (WPA Ltd) or a μQuant MQX200 universal microplate spectrophotometer (Bio-tek), using flat-bottom 96-well microplates (Greiner). Furan derivatives were analyzed on an Agilent 1100 system equipped with a diode array detector set at 230 nm. The column used was a Zorbax Eclipse XDB-C8 (length, 150 mm; internal diameter, 4.6 mm; particle size, 5 μm; Agilent) operated at 25° C. As eluent, a gradient of acetonitrile in 20 mM KH2PO4 (pH 2) with 1% acetonitrile was used at a flow of 1.2 ml/min, increasing from 0 to 5% in 3.5 min and from 5 to 40% in 2.5 min, set as smooth gradients.
Glucose, xylose and arabinose were analyzed by ion chromatography (Dionex ICS3000 system), using a CarboPac PA20 column (length, 150 mm; internal diameter, 3 mm) with 10 mM NaOH at a flow rate of 0.5 ml·min−1 as the eluent.

HmfFG = test: Decarboxylase activity of HmfFG in cell extracts; type: biochemical; conditions: cell extracts of wildtype C. basilensis HMF14 and P. putida S12 expressing HmfFG
P. putida strain S12_fur = test: Growth of P. putida S12_fur on furfural as sole carbon source; type: cell-based, Pseudomonas putida
Source text: (§2) First, the furfural cluster hmfABCDE was introduced into P. putida S12. […] Therefore, strain S12 pJT′hmfABCDE was repeatedly transferred to fresh mineral salts medium with furfural as the sole carbon source.

[3] = system: P. putida S12 pJT′hmfABCDE; test: Growth of P. putida S12 pJT′hmfABCDE on furanics as sole carbon source; type: cell-based, Pseudomonas putida; conditions: growth initially poor
Source text: as §2

HmfH = test: Oxidation by HmfH in cell extracts; type: biochemical; conditions: cell extracts of wildtype C. basilensis HMF14 and P. putida S12 expressing HmfH
Procedure: C. basilensis HMF14 mutants with a disrupted hmfH gene accumulated HMF acid when cultured in the presence of HMF. Cell extracts of both wildtype C. basilensis HMF14 and P. putida S12 expressing HmfH formed FDCA when incubated with HMF acid, confirming that HmfH catalyzes the oxidation of the HMF-monocarboxylic acid to the dicarboxylic acid form.
Analogous to the furfural pathway, no specific genes were identified for the oxidations in the upper HMF metabolic pathway leading from HMF-alcohol to HMF and HMF-acid. Also these oxidations were concluded to be performed by non-specific, redundant dehydrogenases which activities were observed both in C. basilensis HMF14 and P. putida S12 (Table 2). However, it was observed that also HmfH could oxidize HMF, furfural, and furfuryl alcohol to the corresponding acids, respectively, furfural. Apparently, this oxidase is essential for the formation of FDCA from HMF-acid but also provides an oxidase-alternative to the non-specific alcohol and aldehyde dehydrogenases that constitute the upper metabolic pathways for HMF and furfural.

C. basilensis HMF14 [4] = test: Growth of C. basilensis HMF14 on furan derivatives as sole carbon source; type: cell-based, Cupriavidus basilensis; conditions: minimal medium, 3.5 mM compound as sole carbon source
Procedure: Cultures were performed either in Luria broth (LB) or in a minimal medium (MM). Enrichment cultures were performed in MM with 20 mM HMF as the carbon source (MMH20), supplemented as indicated with 0.1 g/l yeast extract as vitamin source (MMyH20). Solid media contained 1.5% agar. Soil and water samples were collected from the botanical garden of the Delft University of Technology and from a peat lake named ‘het Kootwijkerveen’ near Apeldoorn, The Netherlands. The samples were mixed and approximately 1 g was used to inoculate 50 ml MMH2O or MMyH2O in 500-ml Erlenmeyer flasks that were incubated at 30° C. for two days in a rotary shaker. One-ml samples were transferred twice to fresh medium and incubated until bacterial growth was apparent (OD600>1). The final enrichment cultures were streaked onto solid MMH10 and MMyH10 and incubated at 30° C. until colonies appeared.
as §1
In addition to HMF, other furan derivatives are present in lignocellulosic hydrolysates. […] Growth was observed on all tested furan derivatives, with slightly different growth characteristics (table 1). In cultures on furfural, furfural was initially rapidly converted to furfuryl alcohol, while also a small amount of furoic acid was formed (FIG. 1). Without wishing to be bound to any particular theory, conversion of furfural to its alcohol and/or acid form appears to be a common mechanism of furfural detoxification. At the onset of logarithmic growth, furfuryl alcohol production decreased in favour of biomass formation, which likely occurs via furoic acid. Similarly, HMF acid and -alcohol were formed in cultures with HMF as the carbon source. In addition, trace amounts of 2,5-furandicarboxylic acid and furoic acid were found in the HMF cultures (not shown).

P. putida S12_HMF = test: Growth of P. putida S12_HMF on furfural or HMF as sole carbon source; type: cell-based, Pseudomonas putida
Source text: Subsequently, the hmfFGH genes were cloned into P. putida S12_fur. […] Gene hmfH′ was apparently dispensable for growth on HMF, confirming that the encoded gene had no function in HMF metabolism. Nor was the gene essential for HMF transport in P. putida S12. Thus, also all genes required for the utilization of HMF were characterized, and their functionality was reconfirmed by functional expression in a heterologous host.

C. basilensis HMF14 [5] = test: Tolerance of C. basilensis HMF14 towards furfural and HMF, shake-flask cultures; type: cell-based, Cupriavidus basilensis; conditions: for Growth in the presence of compound: 5 mM; for Growth after 24 h of cultivation: shake-flask cultures with 3-15 mM furfural or HMF
Procedure: C. basilensis HMF14 grew in the presence of 5 mM of furfural or HMF (0.48 g/l, and 0.63 g/l respectively). However, since the concentration of these toxic compounds is often higher in lignocellulosic hydrolysates, with values ranging from 0 to 3.5 g/l for furfural, and from 0 to 5.9 g/l for HMF, the tolerance of C. basilensis HMF14 towards furfural and HMF was determined in shake-flask cultures with 3-15 mM furfural or HMF (FIG. 2, table 2). […] Also in the HMF cultures, no stable exponential growth was observed, but the apparent growth rate decreased rather than increased with increasing HMF concentrations.

Ralstonia eutropha = conditions: cited from earlier work
[6] = system: P. putida S12 strains expressing only HmfABCD or HmfABC; test: Growth of P. putida S12 strains expressing only HmfABCD or HmfABC; type: cell-based, Pseudomonas putida
[7] = shake-flask cultures, compound as single carbon source

With `O=Cc1ccc(O)cc1` [4-hydroxybenzaldehyde] the “Substrate utilization by C. basilensis HMF14” value (from here on “Substrate utilization”) (C. basilensis HMF14 [1]; [7]) was “Y”.
With `O=C(O)c1ccc(O)cc1` [4-hydroxybenzoic acid] the “Substrate utilization” value (C. basilensis HMF14 [1]; [7]) was “Y”.
With `OCc1ccc(O)cc1` [4-hydroxybenzyl alcohol] the “Substrate utilization” value (C. basilensis HMF14 [1]; [7]) was “Y”.
In the case of `CC(=O)O` [Acetic acid], the “Growth on carbon source” value (Cupriavidus sp. HMF14) is reported as “able to grow”, the “Removal from wheat straw hydrolysate” value (C. basilensis HMF14 [2]) is reported as “completely removed” and the “Substrate utilization” value (C. basilensis HMF14 [1]; [7]) is reported as “Y”.
With `O=C[C@@H](O)[C@H](O)[C@H](O)CO` [Arabinose] the “Growth on carbon source” value (Cupriavidus sp. HMF14) was “No growth”, the “Concentration in hydrolysate during cultivation” value (C. basilensis HMF14 [2]) was “stable” and the “Substrate utilization” value (C. basilensis HMF14 [1]; [7]) was “N”.
In the case of `O=C(O)c1ccc(C(=O)O)o1` [FDCA, 2,5-furan-dicarboxylic acid], the “Decarboxylation by HmfFG” value (HmfFG) is reported as “formed 2-furoic acid”.
In the case of `COc1cc(/C=C/C(=O)O)ccc1O` [Ferulic acid], the “Substrate utilization” value (C. basilensis HMF14 [1]; [7]) is reported as “Y”.
With `O=CO` [Formic acid] the “Removal from wheat straw hydrolysate” value (C. basilensis HMF14 [2]) was “completely removed” and the “Substrate utilization” value (C. basilensis HMF14 [1]; only co-utilized with a different carbon source) was “Y^b”.
With `O=Cc1ccco1` [Furfural] the Biomass yield (P. putida strain S12_fur) was 51 % (C-mol biomass/C-mol substrate), the Growth rate (P. putida strain S12_fur; after 10 serial transfers) was 0.30 h⁻¹ and the “Utilization as sole carbon source” value [3] was “able to utilize”. For the same compound, the “Oxidation by HmfH” value (HmfH) was “could oxidize”, the “Max. OD600” value (C. basilensis HMF14 [4]) was 1.09 and the μmax (C. basilensis HMF14 [4]) was 0.22 h⁻¹. For the same compound, the Growth rate (P. putida S12_HMF) was 0.23 h⁻¹, the Yield (P. putida S12_HMF) was 40 % (C-mol biomass/C-mol substrate) and the “Growth in the presence of compound” value (C. basilensis HMF14 [5]) was “grew”. The “Growth after 24 h of cultivation” value (C. basilensis HMF14 [5]) was “growth was observed at all concentrations tested”, the “Substrate utilization” value (C. basilensis HMF14 [1]; [7]) was “Y” and the “Metabolic activity of R. Eutropha on compound” value (Ralstonia eutropha) was “high metabolic activity”.
With `OCc1ccco1` [Furfuryl alcohol] the “Utilization as sole carbon source” value [3] was “able to utilize”, the “Oxidation by HmfH” value (HmfH) was “could oxidize” and the “Max. OD600” value (C. basilensis HMF14 [4]) was 1.08. For the same compound, the μmax (C. basilensis HMF14 [4]) was 0.22 h⁻¹ and the “Substrate utilization” value (C. basilensis HMF14 [1]; [7]) was “Y”.
With `O=C(O)c1ccco1` [Furoic acid] the Growth on compound [6] was “failed to grow”, the “Utilization as sole carbon source” value [3] was “able to utilize” and the “Max. OD600” value (C. basilensis HMF14 [4]) was 0.99. It also gave a μmax (C. basilensis HMF14 [4]) of 0.29 h⁻¹.
For `COc1ccccc1O` [Guaiacol], the “Substrate utilization” value (C. basilensis HMF14 [1]; [7]) was “Y”.
In the case of `O=C(O)c1ccc(CO)o1` [HMF acid, 5-hydroxymethyl-2-furancarboxylic acid], the “Oxidation by HmfH” value (HmfH) is reported as “formed FDCA” and the “Decarboxylation by HmfFG” value (HmfFG) is reported as “not decarboxylated”.
With `O=Cc1ccc(CO)o1` [HMF, 5-(hydroxymethyl)-furfural] the “Oxidation by HmfH” value (HmfH) was “could oxidize”, the “Max. OD600” value (C. basilensis HMF14 [4]) was 0.95 and the μmax (C. basilensis HMF14 [4]) was 0.25^a h−1. For the same compound, the Growth rate (P. putida S12_HMF) was 0.23 h⁻¹, the Yield (P. putida S12_HMF) was 40 % (C-mol biomass/C-mol substrate) and the “Growth in the presence of compound” value (C. basilensis HMF14 [5]) was “grew”. The “Growth after 24 h of cultivation” value (C. basilensis HMF14 [5]) was “growth was observed at all concentrations tested” and the “Substrate utilization” value (C. basilensis HMF14 [1]; [7]) was “Y”.
In the case of `CC(=O)CCC(=O)O` [Levulinic acid], the “Substrate utilization” value (C. basilensis HMF14 [1]; [7]) is reported as “Y”.
In the case of `Oc1ccccc1` [Phenol], the “Growth on carbon source” value (Cupriavidus sp. HMF14) is reported as “able to grow” and the “Substrate utilization” value (C. basilensis HMF14 [1]; [7]) is reported as “Y”.
For `COc1cc(C=O)cc(OC)c1O` [Syringaldehyde], the “Substrate utilization” value (C. basilensis HMF14 [1]; [7]) was “N”.
For `COc1cc(C(=O)O)cc(OC)c1O` [Syringic acid], the “Substrate utilization” value (C. basilensis HMF14 [1]; [7]) was “N”.
In the case of `COc1cccc(OC)c1O` [Syringol], the “Substrate utilization” value (C. basilensis HMF14 [1]; [7]) is reported as “N”.
In the case of `COc1cc(C(=O)O)ccc1O` [Vanillic acid], the “Substrate utilization” value (C. basilensis HMF14 [1]; [7]) is reported as “Y”.
For `COc1cc(C=O)ccc1O` [Vanillin], the “Substrate utilization” value (C. basilensis HMF14 [1]; [7]) was “Y”.
For `COc1cc(CO)ccc1O` [Vanillyl alcohol], the “Substrate utilization” value (C. basilensis HMF14 [1]; [7]) was “Y”.
With `O=C[C@H](O)[C@@H](O)[C@H](O)CO` [Xylose] the “Growth on carbon source” value (Cupriavidus sp. HMF14) was “No growth”, the “Concentration in hydrolysate during cultivation” value (C. basilensis HMF14 [2]) was “stable” and the “Substrate utilization” value (C. basilensis HMF14 [1]; [7]) was “N”.
With `c1ccccc1` [benzene] the “Growth on carbon source” value (Cupriavidus sp. HMF14) was “able to grow”.
With `O=C(O)CC(O)(CC(=O)O)C(=O)O` [citrate] the “Growth on carbon source” value (Cupriavidus sp. HMF14) was “able to grow”.
In the case of `O=C(CO)[C@@H](O)[C@H](O)[C@H](O)CO` [fructose], the “Metabolic activity of R. Eutropha on compound” value (Ralstonia eutropha) is listed as “high metabolic activity”.
In the case of `O=C(O)[C@H](O)[C@@H](O)[C@H](O)[C@H](O)CO` [gluconate], the “Growth on carbon source” value (Cupriavidus sp. HMF14) is reported as “able to grow”.
With `O=C(O)CCC(=O)O` [succinate] the “Growth on carbon source” value (Cupriavidus sp. HMF14) was “able to grow”.
In the case of `Cc1ccccc1` [toluene], the “Growth on carbon source” value (Cupriavidus sp. HMF14) is reported as “able to grow”.

— patent publication US20110086395A1, “NOVEL MICROORGANISM AND ITS USE IN LIGNOCELLULOSE DETOXIFICATION” (priority 2009, published 2011)
